Laboratory results reported in the NIST ThermoML archive (doi:10.1021/je060441j).

Assay: xn = mol fraction of the nth substance listed
Details: 101 kPa, Liquid

ClC(Cl)Cl [trichloromethane] + CO
mass density [kg/m3]
Details	288.15 K	293.15 K	298.15 K	303.15 K	308.15 K	313.15 K
x2 = 0	1498.08	1488.64	1479.15	1469.61	1460.03	1450.41
x2 = 0.0298	1487.35	1477.93	1468.46	1458.95	1449.38	1439.8
x2 = 0.0492	1480.27	1470.88	1461.44	1451.95	1442.4	1432.84
x2 = 0.0724	1471.76	1462.41	1453.01	1443.55	1434.04	1424.49
x2 = 0.0942	1463.44	1454.14	1444.79	1435.38	1425.89	1416.4
x2 = 0.1282	1450.19	1440.98	1431.7	1422.37	1412.96	1403.52
x2 = 0.1586	1437.96	1428.83	1419.63	1410.37	1401.04	1391.68
x2 = 0.2444	1401.12	1392.24	1383.3	1374.3	1365.22	1356.1
x2 = 0.2956	1377.44	1368.73	1359.97	1351.14	1342.24	1333.29
x2 = 0.3383	1356.51	1347.95	1339.33	1330.66	1321.9	1313.09
x2 = 0.398	1325.26	1316.93	1308.55	1300.11	1291.59	1283.02
x2 = 0.4393	1302.23	1294.08	1285.87	1277.6	1269.26	1260.88
x2 = 0.4983	1267.1	1259.22	1251.28	1243.28	1235.22	1227.13
x2 = 0.5505	1233.39	1225.77	1218.09	1210.35	1202.55	1194.71
x2 = 0.6022	1197.32	1190.01	1182.62	1175.17	1167.65	1160.08
x2 = 0.6352	1172.94	1165.78	1158.57	1151.3	1143.98	1136.62
x2 = 0.6999	1121.29	1114.52	1107.71	1100.84	1093.93	1086.96
x2 = 0.75	1077.55	1071.1	1064.61	1058.07	1051.48	1044.85
x2 = 0.7996	1030.62	1024.5	1018.34	1012.15	1005.91	999.622
x2 = 0.8193	1011.24	1005.11	998.988	992.86	986.761	980.633
x2 = 0.8534	975.44	969.692	963.915	958.1	952.24	946.342
x2 = 0.91	911.539	906.188	900.813	895.41	889.975	884.513
x2 = 0.93	887.399	882.191	876.963	871.71	866.422	861.11
x2 = 0.9542	857.083	852.051	847	841.927	836.829	831.705
